One block for each compound: values may come before it.
Tests used:
[1] = test system: Spontaneously hypertensive rats; experiment: Blood Pressure Lowering Activity (systolic blood pressure, tail cuff method); assay type: in vivo, rat
Experimental: Blood Pressure Lowering Activity
Systolic blood pressures were recorded by a modification of the tail cuff method described by I. M. Claxton, M. G. Palfreyman, R. H. Poyser, R. L. Whiting, European Journal of Pharmacology, 37, 179 (1976). A W+W BP recorder, model 8005 was used to display pulses. Prior to all measurements rats were placed in a heated environment (33.5°±0.5° C.) before transfer to a restraining cage. Each determination of blood pressure was the mean of at least 6 readings. Spontaneously hypertensive rats (ages 12-18 weeks) with systolic blood pressures>180 mmHg were considered hypertensive.

[2] = test system: guinea pig tracheal spiral preparations; experiment: Bronchodilation in vitro; guinea pig tracheal spiral preparations; assay type: cell-based; conditions: Cavia porcellus; for Emax: guinea pig tracheal spirals, relaxation relative to 10^-3 M isoprenaline, read-out: Intrinsic Activity; for IC50: relaxation as percentage of total relaxation by 10^-3 M isoprenaline, cumulative dosing 10^-8 - 2×10^-5 M, 37° C
Experimental: (a) Bronchodilation in vitro; guinea pig tracheal spiral preparations
Male guinea pigs (300-600 g) were stunned by a blow to the head and bled from the carotid artery. The trachea was exposed, dissected free of connective tissue, and transferred to oxygenated krebs solution at 37° C. Next, spirals (2 per trachea) were prepared by cutting the whole trachea spirally along its longitudinal axis and then dividing this spiral lengthwise. Each preparation was mounted, using silk thread, in a 10 ml organ bath filled with krebs solution at 37° C. and bubbled with 5% CO2 with O2. The resting tension of the preparations was set at 2 g and changes in muscle tension were monitored isometrically by means of a UFI (2 oz) force and displacement transducer (Ormed Ltd) connected to a Linseis pen recorder. All preparations were allowed to equilibrate for 60 minutes. During this equilibration period the preparations were washed by upward displacement at 15 minute intervals and, if necessary, the resting tension was readjusted to 2 g using a mechanical micromanipulator system.
Once a steady resting tension had been obtained, the preparations were dosed cumulatively with the test compound (10^-8 -2×10^-5 M), and finally a maximum relaxation achieved by addition of 10^-3 M isoprenaline. The fall in tension evoked by the test compound was expressed as a percentage of the total relaxation evoked in the presence of 10^-3 M isoprenaline. Appropriate concentration-relaxation curves were then constructed and values for potency (IC50) were obtained.
The composition of Krebs solution is: sodium chloride 118.07 mM, sodium hydrogen carbonate 26.19 mM, potassium chloride 4.68 mM, potassium orthophosphate 1.18 mM, magnesium sulphate septahydrate 1.8 mM and calcium chloride 2.52 mM; pH ca. 7.45.

IC50 [2]: 790 nM
Structure (SMILES): CC1(C)Oc2ccc(C#N)cc2[C@@H](n2ccccc2=O)[C@@H]1O (relative stereo) [Example 1, Trans-6-Cyano-3,4-dihydro-2,2-dimethyl-4-(2(1H)-pyridon-1-yl)-2H-1-benzopyran-3-ol]
% Change in Systolic B.P. ([1]; 0.1 mg/kg p.o., 1 h post dose): -12 ± 5% | % Change in Systolic B.P. ([1]; 0.1 mg/kg p.o., 2 h post dose): -20 ± 2% | % Change in Systolic B.P. ([1]; 0.1 mg/kg p.o., 4 h post dose): -21 ± 3% | % Change in Systolic B.P. ([1]; 0.1 mg/kg p.o., 6 h post dose): -23 ± 5% | Emax [2]: 96%

IC50 [2]: 540 nM
Structure (SMILES): CC1(C)Oc2ccc(C(F)(F)F)cc2[C@@H](n2ccccc2=O)[C@@H]1O (relative stereo) [Example 4, Trans-3,4-Dihydro-2,2-dimethyl-6-trifluoromethyl-4-(2(1H)-pyridon-1-yl)-2H-1-benzopyran-3-ol]
% Change in Systolic B.P. ([1]; 0.3 mg/kg p.o., 2 h post dose): -42 ± 3% | % Change in Systolic B.P. ([1]; 0.3 mg/kg p.o., 4 h post dose): -32 ± 5% | % Change in Systolic B.P. ([1]; 0.3 mg/kg p.o., 6 h post dose): -34% | Emax [2]: 95%

IC50 [2]: 5500 nM
Structure (SMILES): CC1(C)Oc2ccncc2[C@@H](n2ccccc2=O)[C@@H]1O (relative stereo) [Example 6]
Emax [2]: 81%

IC50 [2]: 100 nM
Structure (SMILES): CC1(C)C=C(n2ccccc2=O)c2cc(C#N)ccc2O1 [Example 2, 6-Cyano-2,2-dimethyl-4-(2(1H)-pyridon-1-yl)-2H-1-benzopyran]
% Change in Systolic B.P. ([1]; 0.03 mg/kg p.o., 2 h post dose): -41 ± 3% | % Change in Systolic B.P. ([1]; 0.03 mg/kg p.o., 4 h post dose): -38% | % Change in Systolic B.P. ([1]; 0.03 mg/kg p.o., 6 h post dose): -32 ± 3% | Emax [2]: 92%

IC50 [2]: 11000 nM
Structure (SMILES): CC1(C)C=C(n2ccc(=O)cc2)c2cc(C#N)ccc2O1 [Example 3, 6-Cyano-2,2-dimethyl-4-(4(1H)-pyridon-1-yl)-2H-1-benzopyran]
% Change in Systolic B.P. ([1]; 3 mg/kg p.o., 1 h post dose): -46 ± 7% | % Change in Systolic B.P. ([1]; 3 mg/kg p.o., 2 h post dose): -49 ± 3% | % Change in Systolic B.P. ([1]; 3 mg/kg p.o., 4 h post dose): -63% | % Change in Systolic B.P. ([1]; 3 mg/kg p.o., 6 h post dose): -57 ± 3% | Emax [2]: 75%

IC50 [2]: 52 nM
Structure (SMILES): CC1(C)C=C(n2ccccc2=O)c2cc(C(F)(F)F)ccc2O1 [Example 5, 2,2-Dimethyl-6-trifluoromethyl-4-(2(1H)-pyridon-1-yl)-2H-1-benzopyran]
% Change in Systolic B.P. ([1]; 0.03 mg/kg p.o., 1 h post dose): -15 ± 3% | % Change in Systolic B.P. ([1]; 0.03 mg/kg p.o., 2 h post dose): -20 ± 1% | % Change in Systolic B.P. ([1]; 0.03 mg/kg p.o., 4 h post dose): -25 ± 3% | % Change in Systolic B.P. ([1]; 0.03 mg/kg p.o., 6 h post dose): -28 ± 1% | Emax [2]: 99%

IC50 [2]: 2400 nM
Structure (SMILES): CC1(C)C=C(n2ccccc2=O)c2cnccc2O1 [Example 7, 2,2-Dimethyl-4-(2(1H)-pyridon-1-yl)-2H-pyrano[3,2-c]pyridine]
Emax [2]: 93%

From patent publication US5254557A, “Compound and treatment” (Beecham Group p.l.c., priority 1988, dated 1993)
